For 25 molecules, Ki, inhibition and IC50 results are on record in ChEMBL document CHEMBL1138044, “4-amido-2-aryl-1,2,4-triazolo[4,3-a]quinoxalin-1-ones as new potent and selective human A3 adenosine receptor antagonists. synthesis, pharmacological evaluation, and ligand-receptor modeling studies” (J Med Chem, 2006).

Assay [1] concerns the target T1, Adenosine receptor A1 (Bos taurus, UniProt P28190).
T1 sequence (P28190 whole entry): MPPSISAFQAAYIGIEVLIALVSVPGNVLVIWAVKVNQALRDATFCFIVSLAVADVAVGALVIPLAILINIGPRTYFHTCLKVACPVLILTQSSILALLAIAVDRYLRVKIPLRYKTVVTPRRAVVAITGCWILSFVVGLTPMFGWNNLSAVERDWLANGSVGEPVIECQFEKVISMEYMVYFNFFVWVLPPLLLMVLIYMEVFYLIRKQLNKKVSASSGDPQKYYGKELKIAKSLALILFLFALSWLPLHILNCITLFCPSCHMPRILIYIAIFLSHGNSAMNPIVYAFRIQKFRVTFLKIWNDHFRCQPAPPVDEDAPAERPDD
As to the kind of experiment: Displacement of [3H]DPCPX from adenosine A1 receptor in bovine brain membranes. The class given is cell membranes.

Assay [2] has as its target T2, Adenosine receptor A3 (Homo sapiens) (UniProt P0DMS8).
T2 sequence (whole entry): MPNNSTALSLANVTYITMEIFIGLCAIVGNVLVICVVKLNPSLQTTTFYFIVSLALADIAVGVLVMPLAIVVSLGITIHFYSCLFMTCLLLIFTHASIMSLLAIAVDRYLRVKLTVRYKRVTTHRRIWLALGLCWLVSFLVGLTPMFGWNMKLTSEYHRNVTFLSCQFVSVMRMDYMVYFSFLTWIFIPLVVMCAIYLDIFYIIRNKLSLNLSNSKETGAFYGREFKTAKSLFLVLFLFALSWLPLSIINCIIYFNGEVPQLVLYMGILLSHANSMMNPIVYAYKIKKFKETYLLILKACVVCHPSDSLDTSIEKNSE
As to the kind of experiment: Inhibition of [125I]AB-MECA binding to human adenosine A3 receptor at 1 uM.

Assay [3] deals with Adenosine receptor A2a (Bos taurus). As to the kind of experiment: Inhibition of [3H]CGS 21680 binding to adenosine A2A receptor in bovine striatal membranes at 10 uM. To be noted: Striatum, Membrane.
Assay [4] concerns the target T3, Adenosine receptor A1 (Homo sapiens, UniProt P30542).
T3 sequence (P30542 whole entry): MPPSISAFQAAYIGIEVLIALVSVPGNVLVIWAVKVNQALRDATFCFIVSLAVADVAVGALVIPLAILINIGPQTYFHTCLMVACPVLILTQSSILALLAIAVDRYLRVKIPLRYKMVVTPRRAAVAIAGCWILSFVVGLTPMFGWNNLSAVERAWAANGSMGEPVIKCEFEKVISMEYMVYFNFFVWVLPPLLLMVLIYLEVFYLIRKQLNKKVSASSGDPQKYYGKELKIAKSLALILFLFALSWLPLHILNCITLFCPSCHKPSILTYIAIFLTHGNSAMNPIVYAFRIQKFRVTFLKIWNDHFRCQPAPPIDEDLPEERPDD
In words: Displacement of [3H]DPCPX from human adenosine A1 receptor expressed in CHO cells. The class given is cell-based.

In assay [5] the target is T4, Adenosine receptor A2a (Homo sapiens, UniProt P29274). In words: Inhibition of [3H]NECA binding to human adenosine A2A receptor at 10 uM.
In assay [6] the target is T5, Adenosine receptor A3 (Homo sapiens, UniProt P0DMS8).
T5 sequence (P0DMS8 whole entry): T2 sequence (whole entry)
In words: Displacement of [125I]AB-MECA from human adenosine A3 receptor expressed in CHO cells. It is filed as cell-based.

The target of assay [7] is T6, Adenosine receptor A1 (Bos taurus) (UniProt P28190).
T6 sequence (whole entry): T1 sequence (P28190 whole entry)
As to the kind of experiment: Inhibition of [3H]DPCPX binding to adenosine A1 receptor in bovine brain membranes at 10 uM. The class given is cell membranes.

For assay [8], the target named is T7, Adenosine receptor A1 (Homo sapiens) (UniProt P30542).
T7 sequence (whole entry): T3 sequence (P30542 whole entry)
As to the kind of experiment: Inhibition of [3H]DPCPX binding to human adenosine A1 receptor at 10 uM.

The target of the next assay is T8, Adenosine receptor A2b (Homo sapiens, UniProt P29275).
T8 sequence (P29275 whole entry): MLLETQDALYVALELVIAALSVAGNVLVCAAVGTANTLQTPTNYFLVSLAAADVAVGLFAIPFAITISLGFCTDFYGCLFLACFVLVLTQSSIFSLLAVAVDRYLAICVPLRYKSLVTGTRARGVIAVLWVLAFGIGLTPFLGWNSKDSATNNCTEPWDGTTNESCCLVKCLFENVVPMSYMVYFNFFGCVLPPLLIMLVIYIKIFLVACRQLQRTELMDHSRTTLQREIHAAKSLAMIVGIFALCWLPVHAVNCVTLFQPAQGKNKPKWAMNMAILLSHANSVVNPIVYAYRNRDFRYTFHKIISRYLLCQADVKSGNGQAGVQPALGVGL
In words: Inhibition of NECA-stimulated cAMP level in CHO cells transfected with human adenosine A2B receptor. The class given is functional, cell-based.

The target in assay [9] is T9, Adenosine receptor A2b (Homo sapiens) (UniProt P29275).
T9 sequence (whole entry): T8 sequence (P29275 whole entry)
As to the kind of experiment: Inhibition of NECA-stimulated cAMP level in CHO cells transfected with human adenosine A2B receptor at 1 uM. The class given is functional, cell-based.

Assay [10] concerns the target T5, Adenosine receptor A3. In words: Antagonist activity against Cl-IB-MECA inhibited cAMP level in CHO cells transfected with human A3 receptor. The class given is functional, cell-based.
In assay [11] the target is T4, Adenosine receptor A2a. In words: Displacement of [3H]NECA from human adenosine A2A receptor expressed in CHO cells. It is filed as cell-based.
For assay [12], the target named is Adenosine receptor A2a (Bos taurus). As to the kind of experiment: Displacement of [3H]CGS 21680 from adenosine A2A receptor in bovine striatal membranes.

T4 sequence (P29274 whole entry): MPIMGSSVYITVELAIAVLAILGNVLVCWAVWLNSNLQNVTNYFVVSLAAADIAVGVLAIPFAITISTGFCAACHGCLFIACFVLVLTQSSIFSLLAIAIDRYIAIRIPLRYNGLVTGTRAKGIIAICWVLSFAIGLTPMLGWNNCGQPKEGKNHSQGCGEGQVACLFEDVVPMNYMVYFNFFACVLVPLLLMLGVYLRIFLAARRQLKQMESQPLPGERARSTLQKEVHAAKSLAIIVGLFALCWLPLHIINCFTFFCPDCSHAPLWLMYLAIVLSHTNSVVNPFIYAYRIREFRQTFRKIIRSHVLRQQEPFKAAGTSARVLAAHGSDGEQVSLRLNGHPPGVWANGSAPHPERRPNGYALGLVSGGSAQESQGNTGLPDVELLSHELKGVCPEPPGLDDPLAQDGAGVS

On Adenosine receptor A1 [1], `CC(=O)Nc1nc2c([N+](=O)[O-])cccc2n2c(=O)n(-c3ccccc3)nc12` registered a Ki of 6 nM. The inhibition is 18% in assay [2] and 36% in [3].

As to `CC(=O)Nc1nc2ccccc2n2c(=O)n(-c3ccccc3)nc12`, the Ki at Adenosine receptor A1 [4] came to 2000 nM. The inhibition on Adenosine receptor A2a [5] was 22%.

`COc1ccc(-n2nc3c(NC(=O)c4ccccc4)nc4c([N+](=O)[O-])cccc4n3c2=O)cc1` returned a Ki at Adenosine receptor A3 [6] of 217 nM. Besides, the inhibition in [7] turned out to be 35%; in [3], 15%.

As for `O=C(c1ccccc1)N(C(=O)c1ccccc1)c1nc2ccccc2n2c(=O)n(-c3ccccc3)nc12`, the inhibition in assay [8] stood at 1%; on Adenosine receptor A2a [5], 43%; in [9] it was 15%. In addition, the inhibitory constant (Ki) at Adenosine receptor A1 [1] came out at 30 nM; on Adenosine receptor A3 [6], 5.2 nM. Also, the values for the 50% inhibitory concentration (IC50) against Adenosine receptor A2b and at Adenosine receptor A3 [10] were more than 1000 nM and 28.3 nM, respectively.

As to `O=C(Nc1nc2c([N+](=O)[O-])cccc2n2c(=O)n(-c3ccccc3)nc12)C(c1ccccc1)c1ccccc1`, the inhibition in [8] came to 12%; at Adenosine receptor A2a [5], 49%; in assay [3], 29.5%. For the same molecule, the results for the Ki at Adenosine receptor A1 [1] and at Adenosine receptor A3 [6] were 3.9 nM and 14.9 nM, respectively.

`COc1ccc(-n2nc3c(N(C(=O)c4ccccc4)C(=O)c4ccccc4)nc4c([N+](=O)[O-])cccc4n3c2=O)cc1`: on Adenosine receptor A3 [6], the Ki amounted to 343 nM. Further, the inhibition in assay [7] was found to be 20%.

With `COc1ccc(-n2nc3c(NC(=O)c4ccccc4)nc4ccccc4n3c2=O)cc1`, the Ki worked out at 3580 nM at Adenosine receptor A2a [11], 1010 nM at Adenosine receptor A1 [1] and 2.9 nM at Adenosine receptor A3 [6]. In addition, the inhibition was 37% in [8] and 23% in [3].

As to `COc1ccc(-n2nc3c(NC(C)=O)nc4ccccc4n3c2=O)cc1`, the inhibition was 34% in assay [8] and 6% on Adenosine receptor A2a [5]. Besides, the Ki on Adenosine receptor A1 [1] worked out at 245 nM; at Adenosine receptor A3 [6], 35.7 nM.

`COc1ccc(-n2nc3c(NC(=O)C(c4ccccc4)c4ccccc4)nc4c(N)cccc4n3c2=O)cc1`: the inhibition was found to be 0% in [8], 31% on Adenosine receptor A2a [5] and 0% in assay [3]. Moreover, the Ki on Adenosine receptor A1 [1] was 77.5 nM; at Adenosine receptor A3 [6] it was 2.58 nM.

`CC(=O)Nc1nc2c(N)cccc2n2c(=O)n(-c3ccccc3)nc12` showed an inhibition in assay [8] of 32%. Besides, the inhibition constant (Ki) at Adenosine receptor A1 [1] was determined as 1 nM; on Adenosine receptor A3 [6], 48 nM.

On to `O=C(Nc1nc2ccccc2n2c(=O)n(-c3ccccc3)nc12)c1ccccc1`, for which the Ki is 88.2 nM at Adenosine receptor A2a [11] and 87.8 nM on Adenosine receptor A1 [4].

For the molecule `O=C(Nc1nc2ccccc2n2c(=O)n(-c3ccccc3)nc12)C(c1ccccc1)c1ccccc1`, the Ki worked out at 18.8 nM at Adenosine receptor A1 [4], 10.2 nM at Adenosine receptor A1 [1], 0.81 nM on Adenosine receptor A3 [6] and 1160 nM in assay [12]. The molecule also yielded an inhibition on Adenosine receptor A2a [5] of 58%.

As to `O=C(Nc1nc2c([N+](=O)[O-])cccc2n2c(=O)n(-c3ccccc3)nc12)c1ccccc1`, the inhibition in [8] amounted to 15%; at Adenosine receptor A2a [5], 25%; in assay [7], 32%; in assay [3] it was 0%. Also, the Ki at Adenosine receptor A3 [6] is 22 nM.

For `COc1ccc(-n2nc3c(NC(=O)C(c4ccccc4)c4ccccc4)nc4ccccc4n3c2=O)cc1`, the inhibition in [8] was 25%; in assay [9] it was 37%. For the same molecule, the Ki at Adenosine receptor A1 [1] worked out at 7.2 nM; at Adenosine receptor A3 [6], 44 nM. The IC50 at Adenosine receptor A2b is more than 1000 nM; on Adenosine receptor A3 [10] it was 215 nM.

At Adenosine receptor A3 [6], `O=C(Nc1nc2ccccc2n2c(=O)n(-c3ccc([N+](=O)[O-])cc3)nc12)c1ccccc1` had a Ki of 100 nM. The inhibition in [7] was determined as 55%; in assay [3], 26%.

With `Nc1cccc2c1nc(NC(=O)c1ccccc1)c1nn(-c3ccccc3)c(=O)n12`, the inhibition constant (Ki) at Adenosine receptor A2a [11] amounted to 4850 nM; at Adenosine receptor A1 [4], 98 nM; at Adenosine receptor A1 [1], 42 nM; at Adenosine receptor A3 [6], 22 nM. Besides, in assay [3], the inhibition worked out at 27.8%.

Turning to `O=C(c1ccccc1)N(C(=O)c1ccccc1)c1nc2c([N+](=O)[O-])cccc2n2c(=O)n(-c3ccccc3)nc12`, the inhibition in assay [2] worked out at 27%; in assay [7] it was 39%; in [3], 0%.

Regarding `COc1ccc(-n2nc3c(NC(C)=O)nc4c(N)cccc4n3c2=O)cc1`, the Ki on Adenosine receptor A2a [11] was 1100 nM; on Adenosine receptor A1 [4] it was 2700 nM; at Adenosine receptor A1 [1], 363 nM; at Adenosine receptor A3 [6], 5.5 nM.

Regarding `COc1ccc(-n2nc3c(NC(=O)C(c4ccccc4)c4ccccc4)nc4c([N+](=O)[O-])cccc4n3c2=O)cc1`, the values for the inhibition (in [8]; at Adenosine receptor A2a [5]; in [3]) were 11%, 2% and 0%, respectively. In addition, the inhibitory constant (Ki) on Adenosine receptor A1 [1] was 260 nM.

With `COc1ccc(-n2nc3c(N(C(=O)c4ccccc4)C(=O)c4ccccc4)nc4ccccc4n3c2=O)cc1`, the inhibition in [8] turned out to be 2%; at Adenosine receptor A2a [5], 26%; in [9] it was 13%. The Ki turned out to be 175 nM at Adenosine receptor A1 [1] and 3.29 nM on Adenosine receptor A3 [6]. The IC50 against Adenosine receptor A2b was more than 1000 nM; against Adenosine receptor A3 [10] it was 31.8 nM.

Consider `O=C(Nc1nc2ccccc2n2c(=O)n(-c3ccc([N+](=O)[O-])cc3)nc12)C(c1ccccc1)c1ccccc1`, for which the inhibition was 13% in [2], 30% in [7] and 0% in assay [3].

For the molecule `COc1ccc(-n2nc3c(NC(=O)c4ccccc4)nc4c(N)cccc4n3c2=O)cc1`, the inhibition in assay [8] came to 45%; on Adenosine receptor A2a [5], 24%; in [9] it was 17%. For the same molecule, the Ki on Adenosine receptor A1 [1] was 393 nM; on Adenosine receptor A3 [6], 1 nM. Moreover, the IC50 is more than 1000 nM against Adenosine receptor A2b and 8.6 nM at Adenosine receptor A3 [10].

Regarding `Nc1cccc2c1nc(N(C(=O)c1ccccc1)C(=O)c1ccccc1)c1nn(-c3ccccc3)c(=O)n12`, the figures for the Ki at Adenosine receptor A1 [1] and on Adenosine receptor A3 [6] were 79 nM and 1240 nM, respectively. The inhibition in assay [3] was 36%.

In the case of `COc1ccc(-n2nc3c(NC(C)=O)nc4c([N+](=O)[O-])cccc4n3c2=O)cc1`, the inhibition was 36% in assay [2], 0% in assay [7] and 7% in assay [3].

As to `Nc1cccc2c1nc(NC(=O)C(c1ccccc1)c1ccccc1)c1nn(-c3ccccc3)c(=O)n12`, the values for the Ki on Adenosine receptor A2a [11], on Adenosine receptor A1 [1] and at Adenosine receptor A3 [6] were 627 nM, 1.6 nM and 8.65 nM, respectively. Also, the inhibition came out at 2.5% in assay [8] and 12% in assay [3].
